Source: ChEMBL document CHEMBL2424615, “Design, synthesis, and characterization of novel tetrahydropyran-based bacterial topoisomerase inhibitors with potent anti-gram-positive activity” (J Med Chem, 2013)
pIC50: −log10 of the molar value.

What was measured:
Escherichia coli = test: Antibacterial activity against wild type Escherichia coli ATCC 25922 assessed as growth inhibition by broth microdilution method; type: functional
Pseudomonas aeruginosa = test: Antibacterial activity against wild type Pseudomonas aeruginosa ATCC 27853 assessed as growth inhibition by broth microdilution method; type: functional
Staphylococcus aureus [1] = test: Antibacterial activity against NXL-101-resistant Staphylococcus aureus A-234 harboring DNA gyrase subunit A D83N mutant assessed as growth inhibition by broth microdilution method; type: functional
Streptococcus pneumoniae = test: Antibacterial activity against wild type Streptococcus pneumoniae ATCC 49619 assessed as growth inhibition by broth microdilution method; type: functional
Staphylococcus aureus [2] = test: Antibacterial activity against wild type Staphylococcus aureus ATCC 29213 assessed as growth inhibition by broth microdilution method; type: functional
Topoisomerase IV = Topoisomerase IV (Staphylococcus aureus, UniProt P0C1S7+P0C1U9); test: Inhibition of wild type Staphylococcus aureus ATCC 29213 topoisomerase-4 subunit 2GrlA/2GrlB assessed as pBR322 relaxation after 1 hr; type: protein-complex assay
[3] = Inhibition of wild type Escherichia coli ATCC 25922 DNA topoisomerase-4 subunit 2ParC/2ParE assessed as pBR322 relaxation after 1 hr
[4] = Inhibition of wild type Escherichia coli ATCC 25922 DNA gyrase subunit 2GyrA/2GyrB assessed as pBR322 supercoiling after 1 hr
DNA gyrase = DNA gyrase (Staphylococcus aureus, UniProt P0A0K8+P20831); test: Inhibition of wild type Staphylococcus aureus DNA gyrase subunit 2GyrA/2GyrB assessed as pBR322 supercoiling after 1 hr; type: protein-complex assay
hERG (KCNH2) = hERG (KCNH2) (Homo sapiens, UniProt Q12809); test: Inhibition of human ERG expressed in CHO cells at 10 uM after 3 mins by patch clamp assay relative to control; type: cell-based; details: CHO cells that express human ERG

SMILES | MIC (Escherichia coli) | MIC (Pseudomonas aeruginosa) | MIC (Staphylococcus aureus [1]) | MIC (Streptococcus pneumoniae) | MIC (Staphylococcus aureus [2]) | pIC50 (Topoisomerase IV) | pIC50 [3] | pIC50 [4] | pIC50 (DNA gyrase) | inhibition at 0.05 h, 10 µM (hERG (KCNH2))
COc1ccc2cccc([C@@H](O)[C@H](O)[C@@H]3CC[C@@H](NCc4ccc5c(n4)NC(=O)CS5)CO3)c2n1 | 2 µg/mL | > 8 µg/mL | 0.25 µg/mL | 0.06 µg/mL | 0.03 µg/mL | 6.30 | 6.90 | 6.90 | 7.52 | 72%
COc1cnc2ccc(F)c([C@@H](O)[C@H](O)[C@@H]3CC[C@@H](NCc4cc5c(cn4)OCCS5)CO3)c2n1 | 8 µg/mL | > 8 µg/mL | 2 µg/mL | 0.03 µg/mL | ≤ 0.015 µg/mL | 5.10 | 6.90 | 5.10 | 7.52 | 33%
COc1ccc2nccc([C@@H](O)[C@H](O)[C@H]3CC[C@H](NCc4ccc5c(n4)NC(=O)CS5)CO3)c2n1 | 4 µg/mL | > 8 µg/mL | > 8 µg/mL | 0.5 µg/mL | 0.5 µg/mL | < 5.10 | 6.90 | 5.10 | 6.90 | 45%
COc1ccc2ncc(F)c([C@@H](O)[C@H](O)[C@@H]3CC[C@@H](NCc4cc5c(cn4)OCCO5)CO3)c2n1 | > 8 µg/mL | > 8 µg/mL | 2 µg/mL | 0.03 µg/mL | 0.03 µg/mL | 5.10 | 6.90 | 5.10 | 7.52 | 10%
COc1ccc2nccc(OC[C@@H]3CC[C@@H](NCc4ccc5c(n4)NC(=O)CS5)CO3)c2n1 | 4 µg/mL | > 8 µg/mL | 4 µg/mL | 0.25 µg/mL | 0.5 µg/mL | 5.10 |  | 5.70 | 6.90 | 70%
COc1ccc2ncc(F)c([C@@H](O)[C@H](O)[C@@H]3CC[C@@H](NCc4cc5c(nn4)OCCO5)CO3)c2n1 | > 8 µg/mL | > 8 µg/mL | > 8 µg/mL | 0.5 µg/mL | 0.125 µg/mL | < 5.10 | 5.70 | < 5.10 | 6.90 | 7%
COc1cnc2ccc(F)c([C@@H](O)[C@H](O)[C@@H]3CC[C@@H](NCc4cc5c(cn4)OCCO5)CO3)c2n1 | 8 µg/mL | > 8 µg/mL | 8 µg/mL | 0.125 µg/mL | ≤ 0.015 µg/mL | 5.10 | 6.30 | 5.10 | 6.90 | 11%
COc1ccc2nccc(/C=C/[C@@H]3CC[C@@H](NCc4ccc5c(n4)NC(=O)CS5)CO3)c2n1 | 4 µg/mL | > 8 µg/mL | 4 µg/mL | 1 µg/mL | 0.125 µg/mL | 5.70 | 7.52 | 6.30 | 6.90 | 94%
COc1ccc2nccc(NC(=O)[C@@H]3CC[C@@H](NCc4ccc5c(n4)NC(=O)CS5)CO3)c2n1 | > 8 µg/mL | > 8 µg/mL | > 8 µg/mL | 0.5 µg/mL | 0.25 µg/mL | 5.70 |  | 6.30 | 6.90 | 99%
COc1cnc2ccc(F)c([C@@H](O)[C@H](O)[C@@H]3CC[C@@H](NCc4cc5c(nn4)OCCS5)CO3)c2n1 | > 8 µg/mL | > 8 µg/mL | 8 µg/mL | 0.125 µg/mL | ≤ 0.015 µg/mL | < 5.10 | 5.70 | 5.10 | 6.90 | 0%
